In US20050154230A1, “Urea derivatives” (Bayer HealthCare AG, priority 2001, published 2005):
Read-outs that look alike come from different tables or passages of the source.

Biological target: T1, human VR1 (Homo sapiens, UniProt Q8NER1)
T1 construct: expressed in transfected cells
Experiment: Capsaicin-induced Ca2+ influx in the human VR1-transfected CHO cell line (Assay 1)
Type: cell-based
Procedure: [Measurement of Capsaicin-Induced Ca^2+ Influx in the Human VR1-Transfected CHO Cell Line] (Assay 1)
(1) Establishment of the Human VR1-CHOluc9aeq Cell Line
The cloned hVR1 cDNA was constructed with pcDNA3 vector and transfected into a CHOluc9aeq cell line. The cell line contains aequorin and CRE-luciferase reporter genes as read-out signals. The transfectants were cloned by limiting dilution in selection medium (DMEM/F12 medium (Gibco BRL) supplemented with 10% FCS, 1.4 mM Sodium pyruvate, 20 mM HEPES, 0.15% Sodium bicarbonate, 100 U/ml penicillin, 100 μg/ml streptomycin, 2 mM glutamine, non-essential amino acids and 2 mg/ml G418). Ca^2+ influx was examined in the capsaicin-stimulated clones. […] The human VR1-CHOluc9aeq cells were maintained in the selection medium and passaged every 3-4 days at 1-2.5×10^5 cells/flask ([…]).
(2) Measurement of Ca^2+ Influx Using FDSS-3000
Human VR1-CHOluc9aeq cells were suspended in a culture medium which is the same as the selection medium except for G418 and seeded at a density of 1,000 cells per well into 384-well plates (black walled clear-base/Nalge Nunc International). […] After washing twice with assay buffer the cells were incubated with a test compound or vehicle for 20 min at 25° C. […] Integral R was calculated and compared with controls.

[1] = human VR1-CHOluc9aeq cells, 10 nM capsaicin, compound purity about 40 to 90%, read-out: hVR1 class

T1 sequence (Q8NER1 whole entry): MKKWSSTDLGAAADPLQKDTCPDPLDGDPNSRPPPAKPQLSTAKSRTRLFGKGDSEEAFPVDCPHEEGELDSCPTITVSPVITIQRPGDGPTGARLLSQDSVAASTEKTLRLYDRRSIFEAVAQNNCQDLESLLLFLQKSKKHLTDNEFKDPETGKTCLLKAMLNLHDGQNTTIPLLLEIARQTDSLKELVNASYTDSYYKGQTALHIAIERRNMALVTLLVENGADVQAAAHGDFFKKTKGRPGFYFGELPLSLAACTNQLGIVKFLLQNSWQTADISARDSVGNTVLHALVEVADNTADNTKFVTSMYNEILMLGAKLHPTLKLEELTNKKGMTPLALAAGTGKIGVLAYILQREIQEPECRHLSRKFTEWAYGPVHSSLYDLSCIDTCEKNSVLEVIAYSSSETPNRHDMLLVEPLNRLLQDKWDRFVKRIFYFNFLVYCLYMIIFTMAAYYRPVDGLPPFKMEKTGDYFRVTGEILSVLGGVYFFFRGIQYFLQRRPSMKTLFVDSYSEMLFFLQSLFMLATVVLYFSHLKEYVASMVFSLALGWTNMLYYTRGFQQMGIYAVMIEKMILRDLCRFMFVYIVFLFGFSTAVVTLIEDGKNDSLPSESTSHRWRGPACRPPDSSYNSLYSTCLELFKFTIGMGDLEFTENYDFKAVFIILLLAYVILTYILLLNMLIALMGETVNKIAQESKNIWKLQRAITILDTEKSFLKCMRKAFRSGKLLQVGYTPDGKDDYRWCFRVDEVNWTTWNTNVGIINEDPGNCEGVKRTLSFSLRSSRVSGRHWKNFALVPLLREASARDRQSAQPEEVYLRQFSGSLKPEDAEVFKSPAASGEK

Structure (SMILES)	IC50 [1]	IC50
COc1cc(CNC(=O)Nc2ccccc2Cl)ccc1O [Example 79]	100 to 500 nM	
O=C(Nc1cccc(-c2ccc(F)cc2)c1)Nc1ccccc1CCO [Example 193]	< 100 nM	
COc1cc(CNC(=O)Nc2ccc([N+](=O)[O-])cc2Cl)ccc1O [Example 67]	500 to 1000 nM	
O=C(Nc1ccccc1CCO)Nc1ccccc1-c1ccccc1 [Example 141]	500 to 1000 nM	
COc1ccc(CNC(=O)Nc2ccc(F)cc2)cc1OC [Example 15]	500 to 1000 nM	
COc1cccc(NC(=O)NCc2cccc(Cl)c2)c1 [Example 39]	500 to 1000 nM	
COc1cccc(NC(=O)NCc2ccc(Cl)c(Cl)c2)c1 [Example 43]	100 to 500 nM	
O=C(Nc1ccc(-c2ccc([N+](=O)[O-])cc2)cc1)Nc1ccccc1CCO [Example 178]	100 to 500 nM	
O=C(Nc1cccc(OC(F)(F)F)c1)Nc1ccccc1CCO [Example 2-2, N-[2-(2-hydroxyethyl)phenyl]-N′-[3(trifluoromethoxy)phenyl]urea]		< 100 nM
O=C(Nc1ccccc1CCO)Nc1cccc2cc(O)ccc12 [Example 167]	500 to 1000 nM	
COc1cccc(NC(=O)NCc2ccc(OC)c(OC)c2)c1 [Example 14]	500 to 1000 nM	
O=C(Nc1ccccc1F)Nc1ccccc1CCO [Example 130]	500 to 1000 nM	
O=C(NCc1ccc(F)c(F)c1)Nc1ccccc1 [Example 50]	500 to 1000 nM	
O=C(Nc1cc(Cl)ccc1Cl)Nc1ccccc1CCO [Example 162]	500 to 1000 nM	
O=C(NCc1ccc2c(c1)OCO2)Nc1ccc(F)cc1 [Example 19]	500 to 1000 nM	
O=C(NCc1ccc(Cl)c(Cl)c1)Nc1ccc(F)cc1 [Example 44]	100 to 500 nM	
CCOC(=O)c1ccccc1NC(=O)Nc1ccccc1CCO [Example 140]	500 to 1000 nM	
COCOc1cccc(CNC(=O)Nc2cccc(OC)c2)c1 [Example 25]	500 to 1000 nM	
COc1cc(CNC(=O)Nc2cccc(SC)c2)ccc1O [Example 32]	100 to 500 nM	
O=C(Nc1cc(C(F)(F)F)ccc1Cl)Nc1ccccc1CCO [Example 144]	100 to 500 nM	

Structure (SMILES)	IC50 [1]	IC50
COc1ccc(CNC(=O)Nc2ccccc2)cc1OC [Example 13]	500 to 1000 nM	
CSc1cccc(NC(=O)NCc2ccc(F)c(F)c2)c1 [Example 49]	500 to 1000 nM	
NS(=O)(=O)c1ccc2c(c1)CN(C(=O)Nc1ccc(Cl)c(C(F)(F)F)c1)CC2 [Example 84]	100 to 500 nM	
COc1ccc(COc2cc(CNC(=O)Nc3ccc(F)cc3)ccc2OC)cc1 [Example 7]	500 to 1000 nM	
COc1cccc(NC(=O)NCc2cccc(F)c2)c1 [Example 47]	500 to 1000 nM	
COc1cc(CNC(=O)NCc2ccc(Br)cc2)ccc1O [Example 68]	100 to 500 nM	
COc1ccc(COc2cc(CNC(=O)Nc3ccccc3)ccc2OC)cc1 [Example 6]	500 to 1000 nM	
COc1cc(CNC(=O)Nc2ccc(Oc3ccccc3)cc2)ccc1O [Example 76]		< 100 nM
CSc1cccc(NC(=O)NCc2ccc3c(c2)OCO3)c1 [Example 16]	500 to 1000 nM	
O=C(NCc1cccc(F)c1)Nc1ccccc1 [Example 46]	500 to 1000 nM	
COc1cc(CNC(=O)NCCc2ccccc2)ccc1O [Example 77]	100 to 500 nM	
O=C(NCc1cccc(O)c1)Nc1ccc(F)cc1 [Example 31]	500 to 1000 nM	
COc1cccc(CNC(=O)Nc2cccc(OC)c2)c1 [Example 10]	500 to 1000 nM	
CNS(=O)(=O)c1ccc2c(c1)CN(C(=O)Nc1ccc(Oc3ccccc3)cc1)CC2 [Example 95]	500 to 1000 nM	
O=C(NCc1ccc(Cl)c(Cl)c1)Nc1ccccc1 [Example 42]	100 to 500 nM	
COc1cc(CNC(=O)Nc2cccc(C(C)=O)c2)ccc1O [Example 59]	500 to 1000 nM	
COc1cccc(NC(=O)N2CCc3cc(OC)c(OC)cc3C2)c1 [Example 22]	500 to 1000 nM	
COc1cc(CNC(=O)Nc2ccccc2F)ccc1O [Example 75]	100 to 500 nM	
CS(=O)(=O)Nc1ccc2c(c1)CN(C(=O)Nc1ccc(Cl)c(C(F)(F)F)c1)CC2 [Example 92]	100 to 500 nM	
COc1cccc(NC(=O)NCc2ccc3c(c2)OCO3)c1 [Example 18]	500 to 1000 nM	
